From patent publication US20260250247A1, “NOVEL INDOLINE DERIVATIVE AND USE THEREOF” (CK REGEON INC., priority 2023, published 2026)

What was measured:
Format in all cases: in vivo, C57BL/6N mice
[1] = system: β-catenin and CXXC5 in liver tissue; assay: Liver immunohistochemistry of β-catenin and CXXC5 in MASH mice; conditions: 25 mg/kg/day orally for 4 weeks
Protocol: (§1) Five-week-old wild-type male C57BL/6N mice were purchased from Orient Bio Co., Ltd. They were allowed to acclimate to the laboratory environment for one week. Mice weighing 18-20 g on average were used in the experiment. To ensure ethical and scientific validity and efficient management of animal experiments, the experiment was conducted with the approval of the Institutional Review Board (IACUC-A-202205-1472-01) of Severance Hospital, Yonsei University College of Medicine.
(§2) The mice were divided into a normal group (NCD) and a high-fat diet group (HFD). The normal group (NCD) was fed a normal chow diet (NCD, Teklad Global 18% protein rodent diet), and the high-fat diet group (HFD) was fed a high-fat diet (HFD, D12492) in which fat accounted for 60% of the total calories, for 8 weeks.
Mice induced with metabolic dysfunction-associated steatohepatitis (MASH) (hereinafter, referred to as MASH or MASH group) were prepared by administering CCl4 intraperitoneally twice a week for 4 weeks after feeding the high-fat diet (HFD) for 8 weeks. […]
The sections treated with the primary antibodies were washed with PBS and incubated with biotinylated anti-mouse (1:400; Dako) or anti-rabbit (1:400; Dako) secondary antibodies for 1 hour at room temperature. […] After the staining, images were taken and analyzed using a bright-field microscope (Nikon TE-2000U).

[2] = system: mice induced with metabolic dysfunction-associated steatohepatitis (MASH); assay: Liver fibrosis score from collagen staining (Picrosirius red) in MASH mice; conditions: 25 mg/kg/day orally for 4 weeks; mean±SD; normal group 0, MASH group 3.11
Protocol: as §1, §2
Mice induced with metabolic dysfunction-associated steatohepatitis (MASH) (hereinafter, referred to as MASH or MASH group) were prepared by administering CCl4 intraperitoneally twice a week for 4 weeks after feeding the high-fat diet (HFD) for 8 weeks. The […] was diluted with corn oil at a ratio of 1:19 and injected at a dosage of 2 mL/kg. The normal group (NOD) was administered the same volume of physiological saline.
The animals were divided into 7 groups, each with 10 animals.
After preparing the 7 groups, the animals were euthanized using carbon dioxide and the liver tissues were extracted. The extracted tissues were fixed in 4% neutral paraformaldehyde and embedded in paraffin to prepare sections. The paraffin sections were cut to 4-μm thickness, deparaffinized, and then rehydrated. The hydrated sections were stained with a Weigert's iron hematoxylin solution for 8 minutes and then with Picrosirius red for 1 hour. Collagen fibers were stained red and nuclei were stained blue. The sections were photographed using a bright-field microscope (Nikon TE-2000U).
The main mechanism of nonalcoholic fatty liver disease is the induction of hepatic stellate cell activation, which induces collagen production and leads to liver fibrosis due to collagen accumulation. From the result of collagen staining (Picrosirius red) for observing the total amount of collagen deposition in Test Example 3-6, the liver fibrosis score was analyzed. Stages 2 to 3 were diagnosed as nonalcoholic fatty liver disease (MASH) (M. Brunt et al., 2005).
All quantitative data are presented as mean±standard deviation (SD). In each experiment, all measurements were made at least three times, and data were analyzed using the two-tailed, unpaired Student's t test. P values of <0.05 were considered statistically significant.

[3] = system: mice induced with metabolic dysfunction-associated steatohepatitis (MASH); assay: Liver morphology, H&E histology and MAFLD activity score in MASH mice; conditions: 25 mg/kg/day orally for 4 weeks
Protocol: as §1
as §2, with “weeks. […]” for “weeks.”
After preparing the 7 groups, the animals were sacrificed using carbon dioxide and the liver tissues were extracted. […] Twenty randomly selected microscopic fields were photographed and analyzed using a Nikon bright-field optical microscope (Nikon TE-2000U).
After preparing the 7 groups, the animals were sacrificed using carbon dioxide and the liver tissues were extracted. After staining the liver tissues with H&E, scores were calculated using the MAFLD activity scoring system. […]

Q: With N#Cc1ccc2c(c1)/C(=C1/Nc3ccccc3C1=O)C(=O)N2 [5-cyanoindirubin] as the compound, how does the “β-catenin expression in liver, immunohistochemical staining” value [1] read?
A: Its value is “no significant difference from the MASH group (vehicle)”.

Q: And the “Degree of liver fibrosis (fibrosis score)” value [2]?
A: Its value is 2.89.

Q: And the “steatosis / lipid droplets in liver tissue, H&E staining” value [3]?
A: The value was “steatosis was also confirmed clearly”.

Q: What about the “fatty liver, morphological observation of liver tissue” value ([3]; vs MASH group (vehicle)) of the same compound?
A: The value was “fatty liver was not alleviated significantly”.
